The test has as its target Cathepsin L (Homo sapiens (Human), UniProt P07711). Kind of test: Cathepsin enzyme inhibition assay (fluorogenic peptide substrate Z-Val-Val-Arg-AMC). In kind it is biochemical. Particulars: enzyme 1 nM, substrate 20 μM, pH 6.5. On the procedure: Enzyme activity is measured by observing the increase in fluorescence intensity caused by cleavage of a peptide substrate containing a fluorophore whose emission is quenched in the intact peptide.
Assay buffer: 100 mM potassium phosphate pH 6.5, EDTA-Na 5 mM, Triton X-100 0.001%, DDT 5 mM.
Enzymes (all at 1 nM): human and mouse Cathepsin S, Cat K, Cat B, Cat L
Substrate (20 μM): Z-Val-Val-Arg-AMC, except for Cat K which uses Z-Leu-Arg-AMC (both from Bachem).
AMC=7-Amino-4-Methyl-Coumarin.
Excitation 360 nm, Emission 465 nm.
Enzyme is added to the substance dilutions in 96-well microtitre plates and the reaction is started with substrate. […] IC50 are calculated by standard methods. The results are expressed in μM in the following table.
Cathepsin L, sequence (P07711 114-333): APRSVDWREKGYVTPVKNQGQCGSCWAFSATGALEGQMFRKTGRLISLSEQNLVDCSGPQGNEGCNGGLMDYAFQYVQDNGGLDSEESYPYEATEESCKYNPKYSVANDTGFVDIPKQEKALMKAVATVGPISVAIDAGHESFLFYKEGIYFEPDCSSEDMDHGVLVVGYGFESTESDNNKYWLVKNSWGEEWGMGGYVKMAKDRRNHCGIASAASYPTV
What is called IC50 is the point on the concentration scale where inhibition reaches its midpoint. Read a high IC50 as weaker potency in that assay. Regarding `N#CC1(NC(=O)[C@@H]2Cc3ccc(c(Cl)c3)OC/C=C/CCN3CCCC3C(=O)N2)CC1` (mixture of isomers) [Example 12, (E)-(S)-18-Chloro-5-oxo-16-oxa-4,10-diaza-tricyclo[15.2.2.0*6,10*]henicosa-1(20),13,17(21),18-tetraene-3-carboxylic acid (1-cyano-cyclopropyl)-amide], inhibition was half-maximal at 878 nM (IC50).

Compound `N#CC1(NC(=O)[C@@H]2Cc3ccc(c(Cl)c3)OC/C=C/CCN3C[C@@H](F)CC3C(=O)N2)CC1` (mixture of isomers) [Example 13, (E)-(3S,8S)-18-Chloro-8-fluoro-5-oxo-16-oxa-4,10-diaza-tricyclo[15.2.2.0*6,10*]henicosa-1(20),13,17(21),18-tetraene-3-carboxylic acid (1-cyano-cyclopropyl)-amide] returned an IC50 of 948 nM.

On to `N#CC1(NC(=O)[C@@H]2Cc3ccc(c(Cl)c3)OC/C=C/CCN3CC(F)(F)CC3C(=O)N2)CC1` (mixture of isomers) [Example 14, (E)-(S)-18-Chloro-8,8-difluoro-5-oxo-16-oxa-4,10-diaza-tricyclo[15.2.2.0*6,10*]henicosa-1(20),13,17(21),18-tetraene-3-carboxylic acid (1-cyano-cyclopropyl)-amide], for which the IC50 came to 6060 nM.

In turn, `CC1(C)CC2C(=O)N[C@H](C(=O)NC3(C#N)CC3)Cc3ccc(c(Cl)c3)OC/C=C/CCN2C1` (mixture of isomers) [Example 15, (E)-(S)-18-Chloro-8,8-dimethyl-5-oxo-16-oxa-4,10-diaza-tricyclo[15.2.2.0*6,10*]henicosa-1(20),13,17(21),18-tetraene-3-carboxylic acid (1-cyano-cyclopropyl)-amide] came in with a concentration for half-maximal inhibition (IC50) of 168 nM.

Regarding `N#CC1(NC(=O)[C@@H]2Cc3ccc(cc3)OC/C=C/COc3cccc(c3)C(=O)N2)CC1` [Example 2, (E)-(S)-5-Oxo-11,16-dioxa-4-aza-tricyclo[15.2.2.1*6,10*]docosa-1(20),6,8,10(22),13,17(21),18-heptaene-3-carboxylic acid (1-cyano-cyclopropyl)-amide], inhibition was half-maximal at 230 nM (IC50).

`N#CC1(NC(=O)[C@@H]2Cc3ccc(cc3)OC/C=C/CCc3ccccc3C(=O)N2)CC1` [Example 3, (E)-(S)-5-Oxo-17-oxa-4-aza-tricyclo[16.2.2.0%6,11&]docosa-1(21),6,8,10,14,18(22),19-heptaene-3-carboxylic acid (1-cyano-cyclopropyl)-amide] yielded an IC50 of 77 nM.

Compound `N#CC1(NC(=O)[C@@H]2Cc3ccc(c(Cl)c3)OC/C=C/COc3ccccc3C(=O)N2)CC1` [Example 4, (E)-(S)-19-Chloro-5-oxo-12,17-dioxa-4-aza-tricyclo[16.2.2.0*6,11*]docosa-1(21),6(11),7,9,14,18(22),19-heptaene-3-carboxylic acid (1-cyano-cyclopropyl)-amide] displayed an IC50 of 13.8 nM.

For `N#CC1(NC(=O)[C@@H]2Cc3ccc(c(Cl)c3)OC/C=C/CCc3ccccc3C(=O)N2)CC1` [Example 5, (E)-(S)-19-Chloro-5-oxo-17-oxa-4-aza-tricyclo[16.2.2.0*6,11*]docosa-1(21),6,8,10,14,18(22),19-heptaene-3-carboxylic acid (1-cyano-cyclopropyl)-amide], the concentration for half-maximal inhibition (IC50) is 9.6 nM.

`N#CC1(NC(=O)[C@@H]2Cc3ccc(c(Cl)c3)OC/C=C/COc3cccc(c3)C(=O)N2)CC1` [Example 6, (E)-(S)-18-Chloro-5-oxo-11,16-dioxa-4-aza-tricyclo[15.2.2.1*6,10*]docosa-1(20),6,8,10(22),13,17(21),18-heptaene-3-carboxylic acid (1-cyano-cyclopropyl)-amide] came in with an IC50 of 32 nM.

In turn, `N#CC1(NC(=O)[C@@H]2Cc3ccc(c(Cl)c3)OCCCCOc3ccccc3C(=O)N2)CC1` [Example 7, (S)-19-Chloro-5-oxo-12,17-dioxa-4-aza-tricyclo[16.2.2.0*6,11*]docosa-1(21),6,8,10,18(22),19-hexaene-3-carboxylic acid (1-cyano-cyclopropyl)-amide] yielded a 50% inhibitory concentration (IC50) of 96.2 nM.

`N#CC1(NC(=O)[C@@H]2Cc3ccc(c(Cl)c3)OC/C=C/COc3ccc(Br)cc3C(=O)N2)CC1` [Example 8, (E)-(S)-8-Bromo-19-chloro-5-oxo-12,17-dioxa-4-aza-tricyclo[16.2.2.0*6,11*]docosa-1(21),6,8,10,14,18(22),19-heptaene-3-carboxylic acid (1-cyano-cyclopropyl)-amide] had an IC50 of 24.8 nM.

Regarding `N#CC1(NC(=O)[C@@H]2Cc3ccc(c(Cl)c3)OCCCCOc3ccc(Br)cc3C(=O)N2)CC1` [Example 9, (S)-8-Bromo-19-chloro-5-oxo-12,17-dioxa-4-aza-tricyclo[16.2.2.0%6,11&]docosa-1(21),6,8,10,18(22),19-hexaene-3-carboxylic acid (1-cyano-cyclopropyl)-amide], the IC50 came out at 10 nM.

With `N#CC1(NC(=O)[C@@H]2Cc3ccc(c(Cl)c3)OC/C=C/COc3ccc(Cl)cc3C(=O)N2)CC1` [Example 10, (E)-(S)-8,19-Dichloro-5-oxo-12,17-dioxa-4-aza-tricyclo[16.2.2.0*6,11*]docosa-1(21),6,8,10,14,18(22),19-heptaene-3-carboxylic acid (1-cyano-cyclopropyl)-amide], half-maximal inhibition (IC50) was put at 10.3 nM.

In turn, `N#CC1(NC(=O)[C@@H]2Cc3ccc(c(Cl)c3)OCCCCOc3ccc(Cl)cc3C(=O)N2)CC1` [Example 11, (S)-8,19-Dichloro-5-oxo-12,17-dioxa-4-aza-tricyclo[16.2.2.0*6,11*]docosa-1(21),6,8,10,18(22),19-hexaene-3-carboxylic acid (1-cyano-cyclopropyl)-amide] showed an IC50 of 11.6 nM.

`COc1ccc2c(c1)C(=O)N[C@H](C(=O)NC1(C#N)CC1)Cc1ccc(c(Cl)c1)OC/C=C/CO2` [Example 16, (E)-(S)-19-Chloro-8-methoxy-5-oxo-12,17-dioxa-4-aza-tricyclo[16.2.2.0*6,11*]docosa-1(21),6,8,10,14,18(22),19-heptaene-3-carboxylic acid (1-cyano-cyclopropyl)-amide] gave an IC50 of 11.4 nM.

The compound `COc1ccc2c(c1)C(=O)N[C@H](C(=O)NC1(C#N)CC1)Cc1ccc(c(Cl)c1)OCCCCO2` [Example 17, (S)-19-Chloro-8-methoxy-5-oxo-12,17-dioxa-4-aza-tricyclo[16.2.2.0*6,11*]docosa-1(21),6,8,10,18(22),19-hexaene-3-carboxylic acid (1-cyano-cyclopropyl)-amide] displayed an IC50 of 10.4 nM.

The compound `N#CC1(NC(=O)[C@@H]2Cc3ccc(c(Cl)c3)OC/C=C/COc3cc(C(F)(F)F)ccc3C(=O)N2)CC1` [Example 20, (E)-(S)-19-Chloro-5-oxo-9-trifluoromethyl-12,17-dioxa-4-aza-tricyclo[16.2.2.0*6,11*]docosa-1(21),6,8,10,14,18(22),19-heptaene-3-carboxylic acid (1-cyano-cyclopropyl)-amide] came in with a half-inhibitory concentration (IC50) of 47.7 nM.

Compound `N#CC1(NC(=O)[C@@H]2Cc3ccc(c(Cl)c3)OC/C=C/CNc3ccccc3C(=O)N2)CC1` [Example 21, (E)-(S)-19-Chloro-5-oxo-17-oxa-4,12-diaza-tricyclo[16.2.2.0*6,11*]docosa-1(21),6,8,10,14,18(22),19-heptaene-3-carboxylic acid (1-cyano-cyclopropyl)-amide] returned a 50% inhibitory concentration (IC50) of 54 nM.

For the compound `COc1ccc2c(c1)CCCCCOc1ccc(cc1Cl)C[C@@H](C(=O)NC1(C#N)CC1)NC2=O` [Example 22, (S)-19-Chloro-9-methoxy-5-oxo-17-oxa-4-aza-tricyclo[16.2.2.0*6,11*]docosa-1(21),6,8,10,18(22),19-hexaene-3-carboxylic acid (1-cyano-cyclopropyl)-amide], the IC50 turned out to be 118 nM.

Take `N#CC1(NC(=O)[C@@H]2Cc3ccc(c(Cl)c3)OCCCCOc3cc(C(F)(F)F)ccc3C(=O)N2)CC1` [Example 23, (S)-19-Chloro-5-oxo-9-trifluoromethyl-12,17-dioxa-4-aza-tricyclo[16.2.2.0*6,11*]docosa-1(21),6,8,10,18(22),19-hexaene-3-carboxylic acid (1-cyano-cyclopropyl)-amide]: the IC50 was 50 nM.

`N#CC1(NC(=O)[C@@H]2Cc3ccc(c(I)c3)OC/C=C/COc3ccccc3C(=O)N2)CC1` [Example 24, (E)-(S)-19-Iodo-5-oxo-12,17-dioxa-4-aza-tricyclo[16.2.2.*6,11*]docosa-1(21),6,8,10,14,18(22),19-heptaene-3-carboxylic acid (1-cyano-cyclopropyl)-amide]: the IC50 was determined as 164 nM.

For the compound `N#CC1(NC(=O)[C@@H]2Cc3ccc(c(I)c3)OC/C=C/COc3ccccc3C(=O)N2)CC1` [Example 25, (E)-(S)-19-Iodo-5-oxo-12,17-dioxa-4-aza-tricyclo[16.2.2.0*6,11*]docosa-1(21),6,8,10,14,18(22),19-heptaene-3-carboxylic acid (1-cyano-cyclopropyl)-amide, stereoaxis R], it took 236 nM to reach half-maximal inhibition (IC50).

On to `N#CC1(NC(=O)[C@@H]2Cc3ccc(c(I)c3)OC/C=C/COc3ccccc3C(=O)N2)CC1` [Example 26, (E)-(S)-19-Iodo-5-oxo-12,17-dioxa-4-aza-tricyclo[16.2.2.0*6,11*]docosa-1(21),6,8,10,14,18(22),19-heptaene-3-carboxylic acid (1-cyano-cyclopropyl)-amide, stereoaxis S], for which the IC50 turned out to be 139 nM.

`N#CC1(NC(=O)[C@@H]2Cc3ccc(c(Cl)c3)OC/C=C/COc3cc4c(cc3C(=O)N2)CCCC4)CC1` [Example 27, (3E,12S)-22-chloro-N-(1-cyanocyclopropyl)-14-oxo-2,5,11,12,13,14,16,17,18,19-decahydro-7,10-ethenonaphtho[2,3-b][1,12,5]dioxazacyclohexadecine-12-carboxamide] returned a concentration for half-maximal inhibition (IC50) of 16 nM.

The record behind these values is US9290467B2, “Cyclic amides” (Hoffmann-La Roche Inc., priority 2012, dated 2016).
